Test results: US20080145409A1, “COMPOSITION FOR THE TREATMENT AND PREVENTION OF PEPTIC ULCER” (priority 2006, published 2008)
Counter-ions that a name gives are not always drawn.

Key:
[1] = test system: Helicobacter pylori-induced ulcers; test: Helicobacter pylori-induced gastric ulceration in mice; assay type: in vivo, male CD-1 (Crl.) derived mice; settings: for Ulceration Score Total: N=5 mice, day 8
Procedure: MIC-31 (Citronellol) and MIC-32 (Geraniol) were evaluated for their abilities to protect mice from the Helicobacter pylori-induced ulcers. MIC-31 was dosed at 50, 25, 12.5 and 6.25 mg/kg, P.O., as well as at 25 and 12.5 mg/kg, I.P. MIC-32 was dosed at 25 and 12.5 mg/kg, P.O. These dosing regimes were administered twice daily for 7 consecutive days beginning with the first dose given at one hour after Helicobacter pylori inoculation. On day 8, Gastric ulceration was scored as 0, 1, 2 or 3 (3 being most severe relative to vehicle control) according to the degree of hemorrhage and severity of lesions on the gastric mucosa. MIC-31 and MIC-32 were dissolved in 2% Tween 80 for oral (P.O.) and in 2% Tween 80/0.9% NaCl for intraperitoneal (I.P.) administration. MIC-31 at doses of 50, 25, 12.5, 6.25 mg/kg (P.O.) and 25, 12.5 mg/kg (I.P.), as well as MIC-32 at 25 and 12.5 mg/kg (P.O.), were administered to test animals twice daily for 7 consecutive days. The dosing volume was 10 ml/kg. Male CD-1 (Crl.) derived mice weighing 24±2 g were provided. Space allocation for 10 animals was 29×18×13 cm. Mice were housed in cages and maintained in a controlled temperature (22° C.-23° C.) and humidity (70%-80%) environment with 12 hours light dark cycles for at least one week prior to use. Free access to standard lab chow for mice and tap water was granted. Groups of 5 male CD-1 (Crl.) derived mice weighing 24±2 g, were fasted for 18 hours prior to intragastric inoculation of Helicobacter pylori in suspension at 9.5×10^9 CFU/0.4 ml/mouse. […] MIC-31 was also dosed intraperitoneally at 25 mg/kg and 12.5 mg/kg, starting also one hour after the Helicobacter pylori inoculation, twice daily for 7 consecutive days. Omeprazole 1 mg/kg and Clarithromycin 10 mg/kg, in combination, were used as positive controls and administered orally to test animals once daily for 7 consecutive days under the same treatment regime. Eight days after infection, all animals were fasted overnight and sacrificed. Each stomach was dissected along the greater curvature. Gastric ulceration was scored at four levels according to the degree of hemorrhage and severity of ulcerative lesions: 0=normal appearance, 1=mild red spots, 2=moderate red spots and/or hemorrhage spots, 3=marked hemorrhage spots. Reduction of ulceration score by 50 percent or more (≧50%) relative to vehicle control score values is considered significant. In addition, blood of each animal was collected from the retro-orbital sinus on day 8 and plasma sample was kept frozen at −80° C. until returned to the sponsor. Tissues of stomach and intestines were removed by surgical excision and immersed in 10% Neutral-Buffer formalin for histopathological examination.

[2] = test system: gastric injury induced by ethanol; test: Gastric ulcers induced by absolute ethanol in rats; assay type: in vivo, Sprague-Dawley derived male rats; settings: for Average (gastric ulceration score 0-4): 30 min before absolute ethanol 1 ml/rat, scored 1 h later, 5 rats
Source text: The purpose of this study was to investigate the effect of MIC31 (Citronellol) and its analogues/derivatives on gastric injury induced by ethanol in the rat. Gastric damage was produced by oral administration of absolute ethanol to rats. The severity of the ethanol-induced gastric damage varied considerably within the vehicle-treated group of rats which served as the negative controls.
Animals studied in this example were Sprague-Dawley derived Male Rats from Yung-Min Medical University Laboratory Animal Center. The age of these rats are 7 weeks old. Each group has 5 rats, and their body weight at arrival was 180±10 gm. Upon arrival, heath status of rats will undergo a minimum of one week acclimation period prior to the start of the experiment. At the first day of study, body weights are measured and the animals are grouped according to experiment design. The environmental conditions are listed below:
(10 ml/kg) to a group of 5 Sprague-Dawley derived male rats overnight fasted weighing 180±10 gm at 30 minutes before absolute ethanol challenge (1 ml/rat, P.O.). One hour later, the animals are sacrificed and the stomachs are opened along the greater curvature. Gastric ulceration is scored for degree of hemorrhage and severity of ulcerative lesions as follows: 0=no hyperemia or lesion […], 1=hyperemia, 2=one or two slight lesions, 3=more than two slight lesions, 4=more than two lesions or severe lesions. Reduction of concurrent control score values by 50 percent or more (≧50%) is considered significant. During the experimental phase, body weight will be documented.

[3] = PO 12.5 mg/kg x 2 x 7 days, score 0-3 each
[4] = PO 25 mg/kg x 2 x 7 days, score 0-3 each
[5] = 30 mg/kg P.O., 30 min before absolute ethanol, >=50% considered significant
[6] = 100 mg/kg P.O., 30 min before absolute ethanol, >=50% considered significant
[7] = Rattus norvegicus, po, 1 h, 30 mg/kg P.O., 30 min before absolute ethanol, >=50% considered significant, read-out: Reduction (%) of ulceration score vs concurrent vehicle control
[8] = Rattus norvegicus, po, 1 h, 100 mg/kg P.O., 30 min before absolute ethanol, >=50% considered significant, read-out: Reduction (%) of ulceration score vs concurrent vehicle control
[9] = Rattus norvegicus, po, 1 h, 300 mg/kg P.O., 30 min before absolute ethanol, >=50% considered significant, read-out: Reduction (%) of ulceration score vs concurrent vehicle control
[10] = 300 mg/kg P.O., 30 min before absolute ethanol, >=50% considered significant

Structure (SMILES) | Average (gastric ulceration score 0-4) ([2]; 30 mg/kg P.O.) | Reduction (%) of ulceration score vs concurrent vehicle control [2, 5] | Average (gastric ulceration score 0-4) ([2]; 100 mg/kg P.O.) | Reduction (%) of ulceration score vs concurrent vehicle control [2, 6] | Average (gastric ulceration score 0-4) ([2]; 300 mg/kg P.O.) | inhibition in vivo at 30 mg/kg [2, 7] | inhibition in vivo at 100 mg/kg [2, 8] | inhibition in vivo at 300 mg/kg [2, 9] | other results
CC(C)=CCCC(C)CCO (stereo not shown) [MIC-31, Citronellol] | 1 | 72% | 0.4 | 89% | – | – | – | – | Ulceration Score Total ([1]; IP 12.5 mg/kg x 2 x 7 days): 2; Ulceration Score Total ([1]; IP 25 mg/kg x 2 x 7 days): 8; % Inhibition of ulceration score vs vehicle ([1]; IP 25 mg/kg x 2 x 7 days, >=50% significant): 47%; Ulceration Score Total ([1]; PO 6.25 mg/kg x 2 x 7 days, score 0-3 each): 11; % Inhibition of ulceration score vs vehicle ([1]; PO 6.25 mg/kg x 2 x 7 days, >=50% significant (in parentheses)): 27%; Ulceration Score Total [1, 3]: 7; Ulceration Score Total [1, 4]: 3; Ulceration Score Total ([1]; PO 50 mg/kg x 2 x 7 days, score 0-3 each): 2; Protecting effect on stomach after challenge with absolute ethanol (in words) ([2]; single oral dose 30 min before alcohol challenge, rats): can inhibit the severity degree of hemorrhage and ulcerative lesions in stomach
CC(C)=CCC/C(C)=C/CO [MIC-32, Geraniol] | – | – | – | – | – | – | – | – | Ulceration Score Total [1, 3]: 13; % Inhibition of ulceration score vs vehicle ([1]; PO 12.5 mg/kg x 2 x 7 days, >=50% significant (in parentheses)): 13%; Ulceration Score Total [1, 4]: 11; % Inhibition of ulceration score vs vehicle ([1]; PO 25 mg/kg x 2 x 7 days, >=50% significant (in parentheses)): 27%
CC(C)=CCCC(C)CC(=O)O (stereo not shown) [MIC-35, Citronellic acid] | 2 | – | 1.6, | – | 1.4 | 38% | 50% | 56% | –
CC(C)=CCC[C@H](C)CCBr [MIC-36, (s)-(+)-Citronellyl bromide] | 2 | – | 1.4 | – | 1.6 | 33% | 53% | 47% | –
CC(C)=CCCC(C)CCOC(=O)C(C)C (stereo not shown) [MIC-38, Citronellyl isobutryrate] | 3.2 | 0% | 1.8 | 40% | 1.2 | – | – | – | Reduction (%) of ulceration score vs concurrent vehicle control [2, 10]: 60%
CC(=O)OCCC(C)CCC=C(C)C (stereo not shown) [MIC-39, Citronellyl acetate] | 2.4 | – | 0.8 | – | 0.8 | 20% | 73% | 73% | –
CCC(=O)OCCC(C)CCC=C(C)C (stereo not shown) [MIC-40, Citronellyl propionate] | 3.4 | – | 2.8 | – | 1.2 | 6% | 22% | 67% | –
CC(C)=CCCC(C)CCOC=O (stereo not shown) [MIC-41, Citronellyl formate] | 3.2 | – | 1 | – | 1.4 | 0% | 69% | 56% | –
CC(C)=CCCC(C)CCO (stereo not shown) [MIC-42, Citronellol] | 1.6 | 53% | 0.8 | 76% | 1.6 | – | – | – | Reduction (%) of ulceration score vs concurrent vehicle control [2, 10]: 53%
CC(C)=CCC[C@@H](C)CCBr [MIC-43, (R)-(−)-Citronellyl bromide] | 2.4 | – | 1.6 | – | 1.6 | 29% | 53% | 53% | –
C/C=C(\C)C(=O)OCCC(C)CCC=C(C)C (stereo not shown) [MIC-44, Citronellyl tiglate] | 2.8 | – | 1.8 | – | 2.2 | 22% | 50% | 39% | –
CC(C)=CCCC(C)CCO (stereo not drawn) [MIC-45, (−)-β-Citronellol] | 2.6 | 28% | 1.2 | 67% | 1.6 | – | – | – | Reduction (%) of ulceration score vs concurrent vehicle control [2, 10]: 83%
COc1ccc2[nH]c([S+]([O-])Cc3ncc(C)c(OC)c3C)nc2c1 (stereo not shown) [Omeprazole, reference compound] | – | – | – | – | – | – | – | – | Average (gastric ulceration score 0-4) ([2]; 50 mg/kg P.O.): 2.2; inhibition in vivo at 50 mg/kg ([2]; Rattus norvegicus, po, 1 h, 50 mg/kg P.O., 30 min before absolute ethanol, >=50% considered significant, read-out: Reduction (%) of ulceration score vs concurrent vehicle control): 39%
